Test [1] concerns the target T1, Inhibitor of nuclear factor kappa-B kinase subunit beta (Homo sapiens, UniProt O14920).
T1 sequence (O14920 whole entry): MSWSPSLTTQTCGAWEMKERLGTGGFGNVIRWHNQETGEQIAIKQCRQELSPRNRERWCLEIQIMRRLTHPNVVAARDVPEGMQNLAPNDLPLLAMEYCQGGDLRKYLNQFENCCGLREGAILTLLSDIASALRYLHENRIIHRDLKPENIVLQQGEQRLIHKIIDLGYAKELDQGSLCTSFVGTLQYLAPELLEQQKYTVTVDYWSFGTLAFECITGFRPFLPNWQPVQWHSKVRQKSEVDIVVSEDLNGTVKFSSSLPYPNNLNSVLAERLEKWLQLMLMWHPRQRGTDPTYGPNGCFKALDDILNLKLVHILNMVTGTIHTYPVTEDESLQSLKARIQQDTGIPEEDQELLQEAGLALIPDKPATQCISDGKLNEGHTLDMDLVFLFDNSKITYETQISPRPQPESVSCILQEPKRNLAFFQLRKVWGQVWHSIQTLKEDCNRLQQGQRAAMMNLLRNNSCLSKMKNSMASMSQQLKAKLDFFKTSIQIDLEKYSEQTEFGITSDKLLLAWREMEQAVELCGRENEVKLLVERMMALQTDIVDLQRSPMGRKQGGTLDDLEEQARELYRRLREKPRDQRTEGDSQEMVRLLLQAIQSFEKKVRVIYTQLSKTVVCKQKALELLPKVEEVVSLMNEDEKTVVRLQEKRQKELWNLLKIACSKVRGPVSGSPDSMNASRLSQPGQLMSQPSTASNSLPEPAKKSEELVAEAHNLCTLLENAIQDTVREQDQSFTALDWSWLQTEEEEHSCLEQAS
The test can be described thus: Inhibition of IKK2.

The target of test [2] is Mitogen-activated protein kinase 9 (Homo sapiens, UniProt P45984). In words: Inhibition of JNK2.
Chain of Mitogen-activated protein kinase 9 (P45984 whole entry): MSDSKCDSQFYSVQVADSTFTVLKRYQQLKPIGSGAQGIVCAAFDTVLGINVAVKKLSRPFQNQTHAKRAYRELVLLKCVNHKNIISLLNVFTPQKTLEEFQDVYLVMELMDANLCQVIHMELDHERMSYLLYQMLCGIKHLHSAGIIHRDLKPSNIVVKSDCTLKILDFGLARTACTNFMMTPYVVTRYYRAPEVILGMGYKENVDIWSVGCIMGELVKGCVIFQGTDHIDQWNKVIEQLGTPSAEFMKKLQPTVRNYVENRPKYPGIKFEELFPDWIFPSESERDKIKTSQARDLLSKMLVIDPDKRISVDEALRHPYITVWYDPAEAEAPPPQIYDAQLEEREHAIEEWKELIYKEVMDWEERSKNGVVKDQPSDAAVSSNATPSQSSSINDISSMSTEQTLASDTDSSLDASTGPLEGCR
The target in test [3] is Mitogen-activated protein kinase 14 (Homo sapiens, UniProt Q16539). The test can be described thus: Inhibition of p38alpha.
Chain of Mitogen-activated protein kinase 14 (Q16539 whole entry): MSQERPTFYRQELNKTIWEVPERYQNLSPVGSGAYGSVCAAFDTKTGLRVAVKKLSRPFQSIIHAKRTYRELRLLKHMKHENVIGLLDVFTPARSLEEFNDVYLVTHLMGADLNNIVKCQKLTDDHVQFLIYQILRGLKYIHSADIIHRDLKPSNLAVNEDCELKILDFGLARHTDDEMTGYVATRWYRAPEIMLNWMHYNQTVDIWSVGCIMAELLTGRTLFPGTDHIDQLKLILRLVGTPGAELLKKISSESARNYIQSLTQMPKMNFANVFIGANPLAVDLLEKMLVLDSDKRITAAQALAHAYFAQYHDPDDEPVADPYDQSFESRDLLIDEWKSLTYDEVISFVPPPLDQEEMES
The target in test [4] is MAP kinase-activated protein kinase 3 (Homo sapiens, UniProt Q16644). In words: Inhibition of MK3. In kind it is single protein.
Chain of MAP kinase-activated protein kinase 3 (Q16644 whole entry): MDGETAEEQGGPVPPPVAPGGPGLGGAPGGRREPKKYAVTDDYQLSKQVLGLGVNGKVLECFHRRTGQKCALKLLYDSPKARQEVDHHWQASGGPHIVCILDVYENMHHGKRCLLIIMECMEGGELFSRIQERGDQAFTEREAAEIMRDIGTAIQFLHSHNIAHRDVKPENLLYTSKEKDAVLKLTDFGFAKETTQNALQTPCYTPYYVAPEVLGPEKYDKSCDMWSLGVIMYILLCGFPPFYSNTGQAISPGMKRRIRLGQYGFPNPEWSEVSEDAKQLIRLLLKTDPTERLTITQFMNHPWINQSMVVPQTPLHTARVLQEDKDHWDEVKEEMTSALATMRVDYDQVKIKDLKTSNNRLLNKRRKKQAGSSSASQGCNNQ
Test [5] addresses T2, MAP kinase-activated protein kinase 5 (Homo sapiens, UniProt Q8IW41).
T2 sequence (Q8IW41 whole entry): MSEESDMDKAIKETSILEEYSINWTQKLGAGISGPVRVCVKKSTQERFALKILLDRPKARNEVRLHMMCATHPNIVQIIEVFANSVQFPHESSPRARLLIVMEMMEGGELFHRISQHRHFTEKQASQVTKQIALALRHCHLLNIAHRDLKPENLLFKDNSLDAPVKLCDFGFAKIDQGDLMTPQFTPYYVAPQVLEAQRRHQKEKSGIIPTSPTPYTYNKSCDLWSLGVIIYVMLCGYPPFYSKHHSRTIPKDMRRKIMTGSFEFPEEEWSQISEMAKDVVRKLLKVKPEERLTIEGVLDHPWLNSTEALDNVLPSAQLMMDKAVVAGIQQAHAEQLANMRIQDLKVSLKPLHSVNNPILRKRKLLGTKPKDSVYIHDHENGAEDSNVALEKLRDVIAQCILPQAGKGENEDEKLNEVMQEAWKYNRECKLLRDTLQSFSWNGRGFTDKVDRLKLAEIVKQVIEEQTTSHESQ
The test can be described thus: Inhibition of PRAK.

Test [6] has as its target Ribosomal protein S6 kinase alpha-5 (Homo sapiens, UniProt O75582). The test can be described thus: Inhibition of MSK1.
Test [7] deals with Mitogen-activated protein kinase 1 (Homo sapiens, UniProt P28482). The test can be described thus: Inhibition of ERK2.
Chain of Mitogen-activated protein kinase 1 (P28482 whole entry): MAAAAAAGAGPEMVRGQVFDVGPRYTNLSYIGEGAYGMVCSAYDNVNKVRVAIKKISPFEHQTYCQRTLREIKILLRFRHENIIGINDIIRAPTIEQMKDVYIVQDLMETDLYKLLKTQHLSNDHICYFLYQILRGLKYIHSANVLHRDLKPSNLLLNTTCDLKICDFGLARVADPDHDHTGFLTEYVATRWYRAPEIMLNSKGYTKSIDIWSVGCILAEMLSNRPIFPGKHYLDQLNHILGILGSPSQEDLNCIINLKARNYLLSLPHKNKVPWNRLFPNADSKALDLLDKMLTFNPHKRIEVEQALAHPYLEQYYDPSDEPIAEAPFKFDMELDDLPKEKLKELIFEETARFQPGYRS
Test [8] deals with U-937. The test can be described thus: Inhibition of TNFalpha production in U937 cells. The note with it: Homo sapiens.
Test [9] concerns the target MAP kinase-activated protein kinase 2 (Homo sapiens, UniProt P49137).
In test [10] the target is MAP kinase-interacting serine/threonine-protein kinase 1 (Homo sapiens, UniProt Q9BUB5). In words: Inhibition of MNK1.
Chain of MAP kinase-interacting serine/threonine-protein kinase 1 (Q9BUB5 whole entry): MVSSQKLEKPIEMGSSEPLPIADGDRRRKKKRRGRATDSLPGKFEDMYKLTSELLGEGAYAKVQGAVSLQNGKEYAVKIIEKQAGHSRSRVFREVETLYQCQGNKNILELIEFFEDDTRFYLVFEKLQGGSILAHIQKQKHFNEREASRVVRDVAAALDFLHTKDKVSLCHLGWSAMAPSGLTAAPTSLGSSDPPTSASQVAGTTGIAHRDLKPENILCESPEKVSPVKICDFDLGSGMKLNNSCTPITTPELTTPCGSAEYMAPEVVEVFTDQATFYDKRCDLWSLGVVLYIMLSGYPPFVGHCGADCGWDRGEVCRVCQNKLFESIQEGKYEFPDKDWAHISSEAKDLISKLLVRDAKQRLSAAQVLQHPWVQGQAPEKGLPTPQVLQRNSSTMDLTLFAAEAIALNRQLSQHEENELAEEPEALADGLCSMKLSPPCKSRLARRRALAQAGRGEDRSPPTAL
In test [11] the test system is Rattus norvegicus. In words: Inhibition of TNFalpha production in rat at 40 mg/kg, ip administered 1 hr prior to LPS challenge. Format: functional. Further details: scale not given: the % may be the effect or the level left. The note with it: route intraperitoneal.

pIC50: −log10 of the molar value.

Chain of MAP kinase-activated protein kinase 2 (P49137 whole entry): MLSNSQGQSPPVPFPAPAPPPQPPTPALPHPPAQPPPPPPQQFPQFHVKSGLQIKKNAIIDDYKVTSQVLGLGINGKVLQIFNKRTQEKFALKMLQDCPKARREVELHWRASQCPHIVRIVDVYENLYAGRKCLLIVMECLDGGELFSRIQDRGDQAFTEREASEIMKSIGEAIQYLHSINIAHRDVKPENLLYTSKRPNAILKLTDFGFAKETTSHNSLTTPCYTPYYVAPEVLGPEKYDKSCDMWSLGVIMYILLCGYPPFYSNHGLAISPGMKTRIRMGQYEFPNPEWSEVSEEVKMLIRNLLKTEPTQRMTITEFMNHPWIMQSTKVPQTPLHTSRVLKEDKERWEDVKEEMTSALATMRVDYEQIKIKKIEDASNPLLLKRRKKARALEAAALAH
Chain of Ribosomal protein S6 kinase alpha-5 (O75582 whole entry): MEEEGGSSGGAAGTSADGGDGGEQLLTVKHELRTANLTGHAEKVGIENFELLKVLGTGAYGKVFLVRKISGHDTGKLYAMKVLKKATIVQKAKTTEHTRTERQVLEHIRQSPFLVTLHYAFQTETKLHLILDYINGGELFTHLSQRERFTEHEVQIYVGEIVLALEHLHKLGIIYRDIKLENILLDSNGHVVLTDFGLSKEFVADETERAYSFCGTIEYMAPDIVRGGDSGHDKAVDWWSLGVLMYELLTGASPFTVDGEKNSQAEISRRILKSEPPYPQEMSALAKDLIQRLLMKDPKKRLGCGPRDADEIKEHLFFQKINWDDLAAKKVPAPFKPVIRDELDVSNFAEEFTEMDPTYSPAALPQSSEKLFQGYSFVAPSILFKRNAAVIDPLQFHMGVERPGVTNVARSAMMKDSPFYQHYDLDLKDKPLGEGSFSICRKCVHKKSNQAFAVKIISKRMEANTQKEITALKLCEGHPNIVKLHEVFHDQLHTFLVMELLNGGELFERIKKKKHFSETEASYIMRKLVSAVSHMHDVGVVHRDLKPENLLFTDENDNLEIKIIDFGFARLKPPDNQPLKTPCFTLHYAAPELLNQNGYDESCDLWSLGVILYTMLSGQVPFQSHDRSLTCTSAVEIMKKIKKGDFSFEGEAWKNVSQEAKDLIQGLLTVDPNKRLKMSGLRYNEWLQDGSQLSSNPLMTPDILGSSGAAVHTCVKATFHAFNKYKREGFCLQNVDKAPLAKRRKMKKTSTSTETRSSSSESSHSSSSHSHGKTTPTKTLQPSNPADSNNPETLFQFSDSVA

Take `COc1ccc2[nH]c3c(c2c1)CCNC3C(=O)O` (centres undefined): the pIC50 – broadly, −log10 of the IC50, conventionally taken in molar units – in test [1] is below 3.70; in test [2] it was below 3.70; in test [3] it was below 4.00; in [4] it was below 3.70; in test [5] it was 4.72; in test [6], below 3.70. Besides, the negative logarithm of the IC50 (pIC50) in test [7] is below 4.00.

Consider `COc1ccc2[nH]c3c(c2c1)C1CCN(C1)C3C(=O)OCc1ccccc1` (centres undefined), for which the pIC50 in test [8] was 5.77.

Regarding `COc1ccc2[nH]c3c(c2c1)C1CCCN(C1)C3C(=O)O` (centres undefined), in [4], the negative-log IC50 (pIC50) is 3.80.

As for `CCOC(=O)C1c2[nH]c3ccc(OC)cc3c2C2CCN1C2` (centres undefined), the pIC50 in test [8] is 5.25.

For the molecule `COc1ccc2[nH]c3c(c2c1)CCNC3c1nnn[nH]1` (centres undefined), in [9], the pIC50 was 3.89.

In [8], `COc1ccc2[nH]c3c(c2c1)C1CCN(C1)C3C(=O)OC(C)c1ccccc1` (centres undefined) had a pIC50 of 4.99.

Take `CC(=O)Oc1ccc2[nH]c3c(c2c1)CCNC3C(=O)O` (centres undefined): the negative logarithm of the IC50 (pIC50) in test [9] is 3.77.

Consider `COc1ccc2[nH]c3c(c2c1)C1CCN(C1)C3C(=O)O` (centres undefined), for which the negative-log IC50 (pIC50) in [1] was below 3.70; in test [10], below 3.70; in test [2] it was below 3.70; in test [3], below 4.00; in [4], 4.05; in test [5] it was 4.62. The negative-log IC50 (pIC50) in [6] was below 3.70; in test [8], 4.09.

With `CCCOC(=O)C1c2[nH]c3ccc(OC)cc3c2C2CCN1C2` (centres undefined), the Activity in [11] amounted to 84%. In test [8], this molecule gave a negative logarithm of the IC50 (pIC50) of 6.08.

Turning to `C=CCOC(=O)C1c2[nH]c3ccc(OC)cc3c2C2CCN1C2` (centres undefined), the negative-log IC50 (pIC50) in [8] was 4.84.

The values above are taken from ChEMBL document CHEMBL1140654 (Bioorg Med Chem Lett, 2007).
